Data on 30 molecules can be found in publication PMC8286840, “Identifying SARS-CoV-2 antiviral compounds by screening for small molecule inhibitors of Nsp3 papain-like protease” (Biochemical Journal, 2021).

The target of experiment [1] is T1, SARS-CoV-2 PLpro (nsp3 1564–1878) (Severe acute respiratory syndrome coronavirus 2, UniProt P0DTD1). Briefly: biochemical. On the set-up: FRET-quenched peptide (Pro3) cleavage by PLpro, 10 min pre-incubation, slope over 20 min, normalised to no-compound control. As to conditions: high concentration screen, read-out: % of control remaining.
The target of experiment [2] is T1, SARS-CoV-2 PLpro (nsp3 1564–1878). The experiment is described as follows: biochemical. On the set-up: FRET-quenched peptide (Pro3) cleavage by PLpro, 10 min pre-incubation, slope over 20 min, normalised to no-compound control. As to conditions: low concentration screen, read-out: % of control remaining.

Where a name gives a salt, the structure may show the parent alone. Read-outs that look alike come from different tables or passages of the source.

For `O=c1[nH]cnc2c1ncn2[C@H]1C[C@H](O)[C@@H](CO)O1` [2'-Deoxyinosine], the remaining activity at 3.75 µM was found to be 105% in experiment [1] (Well no.=7497) and 96.3% in experiment [1] (Well no.=7712). For the same molecule, the remaining activity at 1.25 µM was found to be 106% in experiment [2] (Well no.=7497) and 95% in experiment [2] (Well no.=7712).

For `O=c1ccn([C@H]2C[C@H](O)[C@@H](CO)O2)c(=O)[nH]1` [2'-Deoxyuridine], the figures for the remaining activity at 3.75 µM in experiment [1] (Well no.=6627) and in experiment [1] (Well no.=8893) were 102% and 103%, respectively. Also, the remaining activity at 1.25 µM in experiment [2] (Well no.=6627) came to 107%; in experiment [2] (Well no.=8893), 103%.

As for `c1ccc(-c2ccccn2)nc1` [2,2'-Bipyridyl], the remaining activity at 3.75 µM in experiment [1] (Well no.=724) was 95.8%. Also, the remaining activity at 1.25 µM in experiment [2] (Well no.=724) is 96.8%.

Regarding `O=C(Nc1ccc(S(=O)(=O)Nc2nccs2)cc1)C(c1ccccc1)c1ccccc1` [2,2-diphenyl-N-{4-[(1,3-thiazol-2-ylamino)sulfonyl]phenyl}acetamide], in experiment [1] (Well no.=5558), the remaining activity at 3.75 µM came out at 96.4%. In addition, the remaining activity at 1.25 µM in experiment [2] (Well no.=5558) is 92.9%.

For `CC(=O)/C(C)=N/O` [2,3-Butanedione monoxime], in experiment [1] (Well no.=22), the remaining activity at 3.75 µM was 105%. Moreover, in experiment [2] (Well no.=22), the remaining activity at 1.25 µM came out at 103%.

Turning to `CC(=O)C(C)=O` [2,3-Butanedione], the remaining activity at 3.75 µM in experiment [1] (Well no.=687) is 97.2%. The remaining activity at 1.25 µM in experiment [2] (Well no.=687) was 98.3%.

Turning to `COC1=C(OC)C(=O)c2ccccc2C1=O` [2,3-Dimethoxy-1,4-naphthoquinone], the remaining activity at 3.75 µM in experiment [1] (Well no.=739) stood at 96.9%. Further, the remaining activity at 1.25 µM in experiment [2] (Well no.=739) amounted to 98%.

Turning to `CCCCC[C@H](O)/C=C/[C@@H]1[C@@H](CC(=O)CCC(=O)O)[C@@H](O)C[C@@H]1O` [2,3-Dinor-6-keto-prostaglandin F1a], the remaining activity at 3.75 µM in experiment [1] (Well no.=4527) is 97.9%. In addition, the remaining activity at 1.25 µM in experiment [2] (Well no.=4527) came to 93.5%.

For the molecule `COc1cc2c[n+](C)c3c4cc5c(cc4ccc3c2cc1OC)OCO5` [2,3-dimethoxy-12-methyl[1,3]benzodioxolo[5,6-c]phenanthridin-12-ium chloride], the remaining activity at 3.75 µM in experiment [1] (Well no.=5862) was found to be 98.5%. The remaining activity at 1.25 µM in experiment [2] (Well no.=5862) was 100%.

With `O=C(O)c1ccc(O)cc1O` [2,4-Dihydroxybenzoic acid], the remaining activity at 3.75 µM in experiment [1] (Well no.=6781) amounted to 101%. In addition, the remaining activity at 1.25 µM in experiment [2] (Well no.=6781) stood at 102%.

As for `O=[N+]([O-])c1ccc(O[C@@H]2O[C@H](CO)[C@@H](O)[C@H](O)[C@H]2F)c([N+](=O)[O-])c1` [2,4-Dinitrophenyl 2-fluoro-2-deoxy-beta-D-glucopyranoside], the remaining activity at 3.75 µM in experiment [1] (Well no.=637) was determined as 101%. The remaining activity at 1.25 µM in experiment [2] (Well no.=637) was found to be 100%.

For `COC(=O)/C=C/c1cc(O)ccc1O` [2,5-Dihydroxycinnamic acid methyl ester], the remaining activity at 3.75 µM in experiment [1] (Well no.=495) turned out to be 106%. Moreover, in experiment [2] (Well no.=495), the remaining activity at 1.25 µM is 103%.

Consider `O=C(O)c1ccc(C(=O)O)o1` [2,5-Furandicarboxylic acid], for which, in experiment [1] (Well no.=7461), the remaining activity at 3.75 µM amounted to 91.7%. Further, the remaining activity at 1.25 µM in experiment [2] (Well no.=7461) came to 98%.

As for `Nc1cc(=O)[nH]c(N)n1` [2,6-Diamino-4-pyrimidinone], the remaining activity at 3.75 µM in experiment [1] (Well no.=452) amounted to 99.9%. For the same molecule, in experiment [2] (Well no.=452), the remaining activity at 1.25 µM is 104%.

With `O=C(O)c1c(O)cccc1O` [2,6-Dihydroxybenzoic acid], the remaining activity at 3.75 µM in experiment [1] (Well no.=6921) worked out at 105%. The remaining activity at 1.25 µM in experiment [2] (Well no.=6921) is 108%.

In the case of `N=C(N)SCCN` [2-(2-Aminoethyl)isothiourea dihydrobromide], the remaining activity at 3.75 µM in experiment [1] (Well no.=353) came out at 97.5%. Moreover, the remaining activity at 1.25 µM in experiment [2] (Well no.=353) is 96.2%.

For `Cc1ccccc1C(=O)NCC(=O)O` [2-(2-Methylbenzamido)acetic acid], in experiment [1] (Well no.=6725), the remaining activity at 3.75 µM amounted to 104%. Moreover, in experiment [2] (Well no.=6725), the remaining activity at 1.25 µM came out at 103%.

As to `Fc1ccc(-c2c3cccc(C(F)(F)F)c3nn2Cc2ccc(F)cc2Cl)cc1` [2-(2-chloro-4-fluorobenzyl)-3-(4-fluorophenyl)-7-(trifluoromethyl)-2H-indazole], the remaining activity at 3.75 µM in experiment [1] (Well no.=6061) was 94.4%. Also, the remaining activity at 1.25 µM in experiment [2] (Well no.=6061) amounted to 93.7%.

Consider `COc1cc2oc(-c3ccc(O)c(O)c3)cc(=O)c2c(O)c1OC` [2-(3,4-dihydroxyphenyl)-5-hydroxy-6,7-dimethoxy-4H-chromen-4-one], for which the remaining activity at 3.75 µM in experiment [1] (Well no.=5979) is 93.4%. In addition, the remaining activity at 1.25 µM in experiment [2] (Well no.=5979) is 97%.

Regarding `COc1ccc(N2C(=O)CSC2c2cccc(Br)c2)c(OC)c1` (stereo not shown) [2-(3-bromophenyl)-3-(2,4-dimethoxyphenyl)-1,3-thiazolidin-4-one], the remaining activity at 3.75 µM in experiment [1] (Well no.=6016) was found to be 98.8%. Also, the remaining activity at 1.25 µM in experiment [2] (Well no.=6016) is 101%.

As for `COc1ccc(CC(=O)O)cc1` [2-(4-Methoxyphenyl)acetic acid], the remaining activity at 3.75 µM in experiment [1] (Well no.=6451) stood at 104%. Besides, in experiment [2] (Well no.=6451), the remaining activity at 1.25 µM came to 100%.

For `O=C(COc1ccc(C(=O)c2ccccc2)cc1)NC1CCN(Cc2ccccc2)CC1` [2-(4-benzoylphenoxy)-N-(1-benzyl-4-piperidinyl)acetamide], the remaining activity at 3.75 µM in experiment [1] (Well no.=5650) was 98.9%. In addition, the remaining activity at 1.25 µM in experiment [2] (Well no.=5650) came to 101%.

Regarding `CC(=O)NCCOC(=O)[C@H](Oc1cccc(C(F)(F)F)c1)c1ccc(Cl)cc1` [2-(acetylamino)ethyl (2R)-(4-chlorophenyl)[3-(trifluoromethyl)phenoxy]ethanoate], the remaining activity at 3.75 µM in experiment [1] (Well no.=6055) was determined as 97.1%. Also, the remaining activity at 1.25 µM in experiment [2] (Well no.=6055) was 100%.

Consider `C[N+](C)(C)CCC(=O)c1cccc2ccccc12` [2-(alpha-Naphthoyl)ethyltrimethylammonium iodide], for which the remaining activity at 3.75 µM in experiment [1] (Well no.=1051) is 103%. For the same molecule, in experiment [2] (Well no.=1051), the remaining activity at 1.25 µM is 96.5%.

On to `NCC(O)c1ccccc1` (stereo not shown) [2-Amino-1-phenylethanol], for which, in experiment [1] (Well no.=7217), the remaining activity at 3.75 µM came to 96.7%. Moreover, in experiment [2] (Well no.=7217), the remaining activity at 1.25 µM amounted to 95.5%.

With `CCCCC/C=C\C/C=C\C/C=C\C/C=C\CCCC(=O)OC(CO)CO` [2-Arachidonoylglycerol], the remaining activity at 3.75 µM in experiment [1] (Well no.=4505) was 88.7%. In addition, the remaining activity at 1.25 µM in experiment [2] (Well no.=4505) came to 94.8%.

Turning to `O=C[C@H](Cl)[C@@H](O)[C@H](O)[C@H](O)CO` [2-Chloro-2-deoxy-D-glucose], the remaining activity at 3.75 µM in experiment [1] (Well no.=441) turned out to be 104%. Besides, the remaining activity at 1.25 µM in experiment [2] (Well no.=441) amounted to 103%.

Consider `OC[C@H]1O[C@@H](n2cnc3c(NC4CCCC4)nc(Cl)nc32)[C@H](O)[C@@H]1O` [2-Chloro-N6-cyclopentyladenosine], for which the remaining activity at 3.75 µM in experiment [1] (Well no.=439) worked out at 102%. Also, the remaining activity at 1.25 µM in experiment [2] (Well no.=439) was determined as 98.2%.

As to `Nc1nc(Cl)nc2c1ncn2[C@@H]1O[C@H](COP(=O)(O)OP(=O)(O)OP(=O)(O)O)[C@H](O)C1O` (stereo partly shown) [2-Chloroadenosine triphosphate tetrasodium], the remaining activity at 3.75 µM in experiment [1] (Well no.=535) came to 102%. Further, the remaining activity at 1.25 µM in experiment [2] (Well no.=535) stood at 100%.

For `Nc1nc(Cl)nc2c1ncn2[C@@H]1O[C@H](CO)[C@@H](O)[C@H]1O` [2-Chloroadenosine], the remaining activity at 3.75 µM in experiment [1] (Well no.=274) stood at 101%. Further, the remaining activity at 1.25 µM in experiment [2] (Well no.=274) is 99.4%.
